Values of other authors in patent US20080268066A1, “Synergistic Formulation for Preventing and/or Treating Diabetes” (priority 2005, published 2008).
Where a name gives a salt, the structure may show the parent alone. Read-outs that look alike come from different tables or passages of the source.

How the values were obtained:
[1] = tested on: women of polycystic ovary syndrome (PCOS); conditions: daily dose of 1500 mg, 8 weeks later, about 20 women
[2] = intravenous 600 mg, 5 times, after two weeks; control group 2 points
[3] = tested on: babies of mothers with diabetes / embryos in similar glucose concentration; conditions: 71%-88% without
homocysteine = conditions: human, in vivo
[4] = tested on: patients with retinal degeneration; conditions: among 16 patients; supplement every day for 6 months or more
prostate cancer = conditions: fraction
[5] = tested on: acute medicamentous kidney lesion

Structure (SMILES): CN(C)C(=N)N=C(N)N [Metformin HCl]
- women whose menstruation recovered to a normal level [1]: 86.7%

Structure (SMILES): O=C(O)CCCCC1CCSS1 (stereo not drawn) [alpha_lipoic acid]
- decrease of the feeling of pain [2]: 6 points

Structure (SMILES): Nc1nc2ncc(CNc3ccc(C(=O)N[C@@H](CCC(=O)O)C(=O)O)cc3)nc2c(=O)[nH]1 [folic acid]
- probability of babies' aplasia ([3]; embryos in similar glucose concentration with folic acid): 5%
- probability of babies' aplasia ([3]; pregnant animals fed with folic acid): 3%
- decrease of the level of homocysteine (homocysteine): 25%

Structure (SMILES): CC1=C[C@H](O)CC(C)(C)[C@H]1/C=C/C(C)=C/C=C/C(C)=C/C=C/C=C(C)/C=C/C=C(C)/C=C/C1=C(C)C[C@@H](O)CC1(C)C [lutein]
- patients whose vision was apparently improved [4]: 12 patients

Structure (SMILES): CC(C)=CCC/C(C)=C/C=C/C(C)=C/C=C/C(C)=C/C=C/C=C(C)/C=C/C=C(C)/C=C/C=C(\C)CCC=C(C)C [lycopene]
- patients in whom cancer cells proliferation were stopped (prostatic carcinoma; human, in vivo): 44%
- patients with size of the tumor not over 4 dm^3 (prostatic carcinoma; taken 3 weeks before the operation, 55% without): 85%

Structure (SMILES): [Se] [selenium]
- decrease of the occurrence of prostate cancer (prostate cancer): ½-⅓

Structure (SMILES): N[C@@H](CCC(=O)N[C@@H](CS)C(=O)NCC(=O)O)C(=O)O [glutathione, L-glutamic acid-L-cysteine-glycine]
- total effectiveness on blood urine ([5]; P<0.01): 89%
- total effectiveness ([5]; P<0.05): 92%
- total effectiveness on proteinuria ([5]; P<0.05): 57%
